Data reported in patent publication US5428031A, “Methods of treating cardiac arrhythmia” (priority 1993, dated 1995).

System: guinea pig ventricular myocytes
Assay: frequency-dependent effects on action potential duration (APD90) in isolated ventricular myocytes
Type: cell-based
Conditions: for APD90 percent change at 0.01 µM / APD90 percent change at 0.03 µM / APD90 percent change at 0.1 µM: Cavia porcellus, Ventricular myocyte; for APD90 percent change at 0.01 µM: 10 nM; for APD90 percent change at 0.03 µM: 30 nM; for APD90 percent change at 0.1 µM: 100 nM; for APD90 % Change: Washout
Procedure: Guinea pig ventricular myocytes were isolated using a modification of the procedure described by Mitra R and Morad M., "A Uniform Enzymatic Method for Dissociation of Myocytes from Hearts and Stomachs of Nertilorates", Am. J. Physiol. 249:H1056-60 (1985). Excised hearts were perfused through the aorta (retrograde fashion) at a rate of 10 ml/min with oxygenated, warmed (37° C.) solutions described below. The heart was initially perfused for 7 minutes with a Tyrode's solution containing, in mM: 132 NaCl, 4 KCl, 1.2 MgCl2, 10 HEPES (formal name N-2-Hydroxyethylpiperazine-N-2-ethanesulfonic acid), 5 glucose, pH=7.2. The head was then perfused with the same nominally Ca^2+ -free solution containing 150 units/ml Type II collagenase (Worthington) and 0.5 units/ml Type XIV protease (Sigma) for 8 minutes. This perfusate was followed by a Tyrode's solution containing 0.2 mM CaCl2 (without enzymes) for 5 minutes. The digested ventricles were cut into small pieces and gently shaken until cells were visibly dispersed. The cells were stored at room temperature until use, within 8 hours after isolation.
Cell preparation: Same as described in section I.
Transmembrane action potential measurements were made using a technique similar to that described previously by Salata, J. J. and Wasserstrom, J. A. "Effects of quinicline on action potentials and ionic currents in isolated canine ventricular myocytes", Circ. Res. 62:324-337, 1988. The isolated ventricular myocytes were transferred to a glass bottom experimental perfusion chamber (12×25 mm) filled with a HEPES-Tyrode's solution containing in mM: 132 NaCl, 4 KCl, 1.8 CaCl2, 1.2 MgCl2, 10 HEPES, 5 glucose, pH=7.2 to a height of 2 mm. After the myocytes settled to the bottom of the chamber, they were continuously superfused with preheated HEPES-Tyrode's solution at a rate of 2.0 ml/min. The temperature was monitored and maintained at 36°±0.5° C. The experimental chamber was placed on the stage of an inverted microscope (Nikon Diaphot-TMD) to view the cells. Transmembrane potentials were recorded by means of conventional glass microelectrodes that were filled with 3M KCl and had tip resistances of 40-60 M.OMEGA.. The microelectrode was connected through a Ag--AgCl electrode to the headstage preamplifier (model HS-2, gain=1.0) of an operational amplifier with a high input impedance and variable input capacitance neutralization (Axoclamp -2A, Axon Instruments, Foster City, Calif.). The voltage drop across the microelectrode produced by current injection was compensated electronically with an active bridge circuit immediately-before impalement of a cell. The experimental bath was grounded through a 3M KCl agar bridge and a Ag--AgCl junction. The microelectrodes were positioned carefully at the cell surface using a hydraulic micromanipulator (Narishige Model MO-303, Greenvale, N.Y.). Penetration of the cell membrane was achieved by briefly (1-3 msec)increasing the input capacitance neutralization to cause oscillation of the amplifier. After establishing a stable microelectrode seal, the myocyte was lifted off the bottom of the chamber to allow complete superfusion of the cell. Action potentials were generated by passing current pulses of 1 msec in duration, and with an intensity of 1.2 times threshold at varying stimulus rates through the recording electrode. Cells were allowed to stabilize for 20 minutes before collection of data began. Voltage signals were digitized using an analog to digital converter (TL-1, DMA interface, Axon Instruments, Foster City, Calif.) at a sampling frequency of 2 kHz. Data acquisition and analysis were performed with pClamp software (Axon Instruments, Foster City, Calif.) and an AST 486 computer (Irvine, Calif.). Action potentials were stimulated at rates of either 60, 120, and 180 beats/min and were allowed to stabilized for 1 minute at each rate. […]

SMILES: CN1C(=O)[C@H](NC(=O)/C=C/c2ccc(Cl)cc2Cl)N=C(c2ccccc2)c2ccccc21 [Example 26, E-(+)-N-[(3R)-2,3-Dihydro-1-methyl-2-oxo-5-phenyl-1H-1,4-benzo-diazepin-3-yl]-3-(2,4-dichlorophenyl)-2-propenamide]
- APD90 percent change at 0.01 µM (60 beats/min): 9.4%
- APD90 percent change at 0.01 µM (120 beats/min): 10.1%
- APD90 percent change at 0.01 µM (180 beats/min): 12.4%
- APD90 percent change at 0.03 µM (60 beats/min): 16%
- APD90 percent change at 0.03 µM (120 beats/min): 14.8%
- APD90 percent change at 0.03 µM (180 beats/min): 14.4%
- APD90 percent change at 0.1 µM (60 beats/min): 24.7%
- APD90 percent change at 0.1 µM (120 beats/min): 24.3%
- APD90 percent change at 0.1 µM (180 beats/min): 22.9%
- APD90 % Change (60 beats/min): 4.2%
- APD90 % Change (120 beats/min): 5.3%
- APD90 % Change (180 beats/min): 5.9%
- reversibility of APD90 increase (after 20 min of washout): nearly completely reversible
- frequency dependence of APD90 increase (at higher concentrations): frequency-independent manner
- frequency dependence of APD90 increase (at lower concentrations (10 nM)): forward frequency-dependent manner
- effect on action potential duration (isolated guinea pig myocytes): concentration and rate-dependent increases in the action potential duration
